Consider 20 compounds from PubChem BioAssay (NCI).

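Step 1: Grow cells in 96-well plates. Step 2: Expose to compound for 48 hours at 5 concentrations. Step 3: Interpolate endpoints linearly; if unreached, use highest concentration. The concentration for 50% growth inhibition is given as GI50. TGI denotes the concentration required for complete inhibition of growth.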

Common to all, as to experiment: growth of human tumour cells (NCI), 48 h
In experiment [1] the test system is SF-295 CNS.
Experiment [2] has as its system CCRF-CEM leukemia.
Experiment [3] has as its system RXF 393 renal.
Experiment [4] relates to OVCAR-8 ovarian.
In experiment [5] the test system is OVCAR-4 ovarian.
Experiment [6] concerns SK-OV-3 ovarian.
Experiment [7] deals with K-562 leukemia.
Experiment [8] relates to CAKI-1 renal.
Experiment [9] has as its system UO-31 renal.
For experiment [10], the system named is SF-268 CNS.

For the compound `O=c1cc(-c2ccc3c(c2)OCO3)[nH]c2cc3c(cc12)OCO3`, the GI50 was 29.6 µM in experiment [1], 20.8 µM in [3] and 46.8 µM in [10]. Also, the TGI in [1] is 87.8 µM; in experiment [2] it was more than 100 µM; in experiment [3], 66.5 µM; in experiment [4], 78.1 µM; in experiment [5], more than 100 µM; in experiment [6], 99.4 µM. In addition, the TGI in experiment [7], in [8], in experiment [9] and in experiment [10] was more than 100 µM throughout.
In the case of `CC1NC(=O)C(C)C(c2ccccc2)N(N=O)C1c1ccccc1` (centres undefined), the TGI in [1] was more than 100 µM; in experiment [2], more than 100 µM; in experiment [3], more than 100 µM; in experiment [4] it was more than 100 µM; in [5] it was 97.1 µM; in experiment [6], more than 79.1 µM. Moreover, the TGI in experiment [7], in experiment [8], in experiment [9] and in experiment [10] was more than 100 µM each time.
For the compound `C(=C/CCCN1O[C@@H](CCCCCCCCc2cccnc2)[C@H]2CCC[C@H]21)/CCCCCCCCCc1cccnc1`, the TGI is 41.9 µM in experiment [1]; 41.3 µM in [2]; 32.9 µM in [3]; 88.3 µM in experiment [4]; more than 100 µM in experiment [5]; 47.2 µM in experiment [6]. Besides, the TGI in [7] was 29 µM; in [8] it was 33.1 µM; in [9], 40.5 µM; in experiment [10] it was 63.7 µM.
Consider `COC(=O)[C@]1(C)CCC[C@@]2(C)C1CC[C@@]13C=C(C(C)C)[C@@H](CC1=O)CC23` (some centres undefined), for which the TGI is 68.3 µM in experiment [1]; 42.4 µM in [2]; 41.2 µM in [3]; more than 100 µM in experiment [4]; more than 100 µM in experiment [5]; more than 100 µM in experiment [6]. The TGI in experiment [7] was 30.2 µM; in experiment [8], 85.2 µM; in experiment [9] it was 49 µM; in experiment [10], more than 100 µM.
Turning to `N#CSC#CCCC#CSC#N`, the TGI in experiment [1] is 32.7 µM; in experiment [2], more than 100 µM; in experiment [3], 35.7 µM; in experiment [4] it was 60.7 µM; in experiment [5], 58.5 µM; in experiment [6] it was 29.7 µM. Moreover, the TGI in experiment [7] was more than 100 µM; in experiment [8], 33.7 µM; in experiment [9], 33.5 µM; in experiment [10], more than 100 µM.
For `O=C1SC(SCc2ccccc2)=NC12CC2c1ccccc1` (centres undefined), the TGI was 44.8 µM in [1]; 11.1 µM in experiment [2]; 37.2 µM in [3]; 41.8 µM in experiment [4]; 51.7 µM in experiment [5]; more than 100 µM in experiment [6]. Also, the TGI in [7] amounted to 55.3 µM; in experiment [8], 40.5 µM; in [9] it was 41.2 µM; in experiment [10], 70.1 µM.
In the case of `COc1ccccc1CC(=O)C(O)(C(F)(F)F)C(F)(F)F`, the TGI in experiment [1], in experiment [2], in experiment [3], in experiment [4], in experiment [5] and in [6] was more than 100 µM in each case. For the same compound, the TGI in experiment [7], in experiment [8], in experiment [9] and in experiment [10] was more than 100 µM each time.
In the case of `CCOC(=O)CCC(NC(=O)C(N)Cc1ccc(N(CCCl)CCCl)cc1)C(=O)OCC` (centres undefined), the TGI in [1] stood at 11.7 µM; in [2], 4.29 µM; in [3], 0.739 µM; in experiment [4] it was 2.4 µM; in [5] it was 1.38 µM; in experiment [6] it was 5.3 µM. Also, the TGI is 12.7 µM in experiment [7], 3.08 µM in experiment [8], 2.92 µM in experiment [9] and 4 µM in experiment [10]. The GI50 in experiment [3] is 0.17 µM.
Turning to `O=C1c2sc(-c3ccc(Cl)cc3)cc2-n2cccc21`, the TGI in experiment [1], in [2], in [3], in [4], in experiment [5] and in [6] was more than 100 µM in each case. In addition, the TGI in [7], in [8], in experiment [9] and in experiment [10] was more than 100 µM in each case.
With `CCOC(=O)c1ccc(-c2cc(C)no2)[nH]1`, the TGI in experiment [1], in experiment [2], in experiment [3], in experiment [4], in experiment [5] and in [6] was more than 100 µM throughout. The TGI in experiment [7] was more than 100 µM; in [8], 71.5 µM; in experiment [9] it was more than 100 µM; in experiment [10] it was more than 100 µM.
Consider `O=c1[nH]c(=O)n(C2COC(CO)C2O)cc1F` (centres undefined), for which the TGI in [1] was more than 100 µM; in experiment [2] it was more than 100 µM; in experiment [3], 60.8 µM; in [4], more than 100 µM; in [5] it was more than 100 µM; in experiment [6] it was more than 100 µM. Moreover, the TGI in experiment [7], in [8], in [9] and in experiment [10] was more than 100 µM throughout.
Take `C=CCNC(=S)N/C=C(\C#N)C(N)=O`: the TGI in experiment [1], in [2], in [3], in experiment [4], in experiment [5] and in [6] was more than 100 µM in each case. The TGI in experiment [7], in experiment [8], in experiment [9] and in experiment [10] was more than 100 µM each time.
`CCOC(=O)c1csc(NC(=O)CN2CCCC2)n1`: the TGI in experiment [1], in experiment [2], in experiment [3], in [4], in [5] and in [6] was more than 100 µM in each case. Also, the TGI in experiment [7], in experiment [8], in experiment [9] and in experiment [10] was more than 100 µM in each case.
In the case of `O=C1OC(c2ccccc2)=N/C1=C\c1ccc([N+](=O)[O-])cc1`, the TGI in experiment [1] was more than 100 µM; in experiment [2], 68.3 µM; in [3] it was more than 100 µM; in [4] it was more than 100 µM; in experiment [5], more than 100 µM; in experiment [6], more than 100 µM. Further, the TGI in experiment [7], in experiment [8], in experiment [9] and in [10] was more than 100 µM each time.
In the case of `CC(C)C(NC(=O)Oc1ccccc1)C(=O)NC1c2c(Br)sc(Br)c2C(=O)C1O` (centres undefined), the TGI in experiment [1] was more than 25 µM; in [2], 15.6 µM; in experiment [3] it was 7.25 µM; in experiment [4], 9.15 µM; in experiment [5], 6.41 µM; in [6], more than 25 µM. Also, the TGI is 17.4 µM in [7], 14.1 µM in experiment [8], more than 25 µM in experiment [9] and 14.1 µM in experiment [10].
In the case of `O=C(CC1Sc2ccccc2NC1=O)Nc1ccccc1[N+](=O)[O-]` (centres undefined), the TGI in [1], in experiment [2], in [3], in experiment [4], in experiment [5] and in experiment [6] was more than 100 µM in each case. For the same compound, the TGI in experiment [7], in [8], in experiment [9] and in experiment [10] was more than 100 µM each time.
For the compound `COc1cc2c(/C=C3/C(=O)Nc4cccc(Cl)c43)c(Cl)[nH]c2cc1C`, the TGI in [1] is 4.21 µM; in [2], 3.3 µM; in [3], 7.41 µM; in [4], 11.8 µM; in experiment [5] it was 3.48 µM; in experiment [6] it was 5.67 µM. Also, the TGI in experiment [7] is 3.64 µM; in experiment [8] it was 7.3 µM; in [9], 17.1 µM; in [10] it was 19.8 µM.
Consider `O=C1c2ccccc2-n2nnnc2C2CSCN12` (centres undefined), for which the TGI in experiment [1], in [2], in experiment [3], in experiment [4], in [5] and in [6] was more than 100 µM in each case. Moreover, the TGI in [7], in experiment [8], in [9] and in experiment [10] was more than 100 µM each time.
On to `O=C(O)C1C2c3ccccc3C(c3ccccc32)C1C(=O)NCC1CC1` (centres undefined), for which the TGI in experiment [1] is more than 100 µM; in [2], 96.8 µM; in experiment [3], more than 100 µM; in experiment [4], more than 100 µM; in experiment [5], more than 100 µM; in [6] it was more than 100 µM. The TGI in experiment [7], in experiment [8], in experiment [9] and in experiment [10] was more than 100 µM throughout.
For the compound `C[C@]12[C@@H]3CC[C@H]1[C@@H](O)C(=O)N2CC3`, the TGI in experiment [1], in experiment [2], in experiment [3], in experiment [4], in experiment [5] and in experiment [6] was more than 100 µM in each case. The TGI in experiment [7], in experiment [8], in experiment [9] and in experiment [10] was more than 100 µM each time.
